From publication PMC8367633 (Journal of Applied Glycoscience, 2020)

Molecular target: T1, Blon_0248 (Bifidobacterium longum, UniProt A0ACD7UNL5)
T1 sequence (A0ACD7UNL5 1-449): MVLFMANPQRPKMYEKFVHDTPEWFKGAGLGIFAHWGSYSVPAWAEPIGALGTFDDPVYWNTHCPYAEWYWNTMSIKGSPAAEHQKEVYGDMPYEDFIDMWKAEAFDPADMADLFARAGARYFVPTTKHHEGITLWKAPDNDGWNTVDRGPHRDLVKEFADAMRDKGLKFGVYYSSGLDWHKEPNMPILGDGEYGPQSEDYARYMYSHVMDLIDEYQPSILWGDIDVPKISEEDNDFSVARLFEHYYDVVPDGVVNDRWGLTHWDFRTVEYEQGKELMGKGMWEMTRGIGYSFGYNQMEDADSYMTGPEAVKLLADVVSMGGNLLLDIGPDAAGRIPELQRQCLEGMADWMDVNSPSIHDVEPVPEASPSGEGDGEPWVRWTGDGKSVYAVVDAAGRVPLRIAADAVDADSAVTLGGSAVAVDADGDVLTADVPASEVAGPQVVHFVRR
Assay: pNP release, absorbance […] nm
Format: biochemical
Conditions: 50 mM sodium acetate pH 6.0, 37 °C

## C[C@@H]1O[C@@H](Oc2ccc([N+](=O)[O-])cc2)[C@@H](O)[C@H](O)[C@@H]1O [pNP-α-Fuc]
  pNP release, absorbance 405 nm: Both proteins specifically hydrolyzed pNP-α-Fuc, but not any of the other pNP-glycosides tested
